In ChEMBL document CHEMBL5608113, “Targeting of CAF-induced therapy resistance in CRC organoid-stroma co-cultures” (2024):
Square brackets hold non-standard residues; d marks the D form. Peptide text beside a SMILES is read from it. Arg(Me) = CNC(=N)NCCC[C@H](N)C(=O)O; d4Pal = N[C@H](Cc1ccncc1)C(=O)O; azaGly = NNC(=O)O

Experiments:
Assay type in all cases: functional, Homo sapiens
Settings in all cases: Homo sapiens, read-out: Cell Viability; for viability at 1 µM: Concentration 1 uM; for viability at 10 µM: Concentration 10 uM
[1] = tested on: Colon cancer organoid; assay: Targeting of F14 CAF-induced therapy resistance in O23 CRC organoid-stroma co-culture. Cell viability is reported with SN-38.
[2] = tested on: Colon cancer organoid; assay: Targeting of F14 CAF-induced therapy resistance in O14 CRC organoid-stroma co-culture. Cell viability is reported without Gefitinib.
[3] = tested on: Colon cancer organoid; assay: Targeting of F14 CAF-induced therapy resistance in O23 CRC organoid-stroma co-culture. Cell viability is reported without Gefitinib.
[4] = tested on: Colon cancer organoid; assay: Targeting of F14 CAF-induced therapy resistance in O14 CRC organoid-stroma co-culture. Cell viability is reported with Gefitinib.
[5] = tested on: Colon cancer organoid; assay: Targeting of F14 CAF-induced therapy resistance in O23 CRC organoid-stroma co-culture. Cell viability is reported with Gefitinib.

SMILES | viability at 1 µM [1] [%] | viability at 1 µM [2] [%] | viability at 1 µM [3] [%] | viability at 1 µM [4] [%] | viability at 1 µM [5] [%] | viability at 10 µM [1] [%] | viability at 10 µM [2] [%] | viability at 10 µM [3] [%] | viability at 10 µM [4] [%] | viability at 10 µM [5] [%]
O=C(O)[C@H]1[C@H](Cn2nnc3ccccc3c2=O)CC[C@@H]1C(=O)c1ccc(OCCC2CCOCC2)cc1 [BAY-7598] | 99.1 | 122 | 130 | 48.5 | 41.8 | – | – | – | – | –
c1ccc(C2CCN(c3cnc4c(N5CCOCC5)nccn34)CC2)cc1 | – | – | – | – | – | 108 | 81.3 | 207 | 78.2 | 136
Nc1c(C(=O)NCc2ccc(C(=O)NCCCC3CCCCC3)cc2)cnn1-c1ccccc1 [SR-318] | 77.6 | 85 | 166 | 41.3 | 58.8 | – | – | – | – | –
CCS(=O)(=O)c1cc2cc(C[C@@](O)(CC(C)(C)c3ccc(F)cc3C(N)=O)C(F)(F)F)[nH]c2cn1 [BI 3047] | 71 | 137 | 139 | 44.9 | 46.6 | – | – | – | – | –
N#Cc1ccc(Nc2ccc3[nH]c(=O)[nH]c3c2)c(Cl)c1 [TP-021n] | 63.2 | 115 | 161 | 59.2 | 47.2 | – | – | – | – | –
O=C(Nc1ccc(-n2nc(-c3cccnc3)cc2C(F)(F)F)cn1)c1ccc(-c2ccccc2)c(F)c1 [BI 2049] | 97.9 | 132 | 103 | 24.6 | 32.7 | – | – | – | – | –
COc1nc2ccc([C@@](O)(c3ccccc3)C3CCN(C(C)=O)CC3)cc2c(Cl)c1Cc1ccc(-n2cccn2)cc1 [JNJ-54119936] | – | – | – | – | – | 62.6 | 146 | 106 | 45.8 | 64.3
COc1cc(OC)cc(-c2noc(N3CCN(C)C4(CCN(c5ccccc5)CC4)C3)n2)c1 | – | – | – | – | – | 81.3 | 114 | 104 | 46.8 | 65.9
Cc1c(NC(=O)COc2ccc(Cl)cc2C(=O)c2cc(F)cc(C(F)(F)F)c2)ccc(C(=O)O)c1F [BI 2540] | – | – | – | – | – | 67.8 | 124 | 132 | 64.5 | 79.4
CN(c1ccnc(CNc2nc(Nc3ccc4c(c3)CC(=O)N4)ncc2C(F)(F)F)n1)S(C)(=O)=O [PF-00911705] | 73.5 | 87 | 87.4 | 48 | 34.6 | – | – | – | – | –
NC1(c2ccc(-c3nc4ccn5c(=O)[nH]nc5c4cc3-c3ccccc3)cc2)CCC1 | – | – | – | – | – | 19.5 | 53.7 | 24.5 | 32.7 | 19.9
CN(C(=O)c1cnn2cccnc12)c1cc2c(cc1N1CCOCC1)C(=O)N(C[C@@H](F)C(C)(C)O)C2 | – | – | – | – | – | 61.8 | 139 | 92.3 | 38.6 | 39.2
O=C(Nc1cnc(Oc2ccc(F)cc2)nc1)N1CCc2ncccc2[C@@H]1c1ccc(F)cc1 [BAY-899] | – | – | – | – | – | 59.1 | 98.8 | 223 | 39.4 | 63.6
CCOC(=O)CCNc1cc(N2CCc3ccccc3CC2)nc(-c2cccnc2)n1 | – | – | – | – | – | 79.9 | 60.1 | 140 | 57.2 | 90.8
CNC(=O)c1cc(C(=O)N[C@H]2[C@@H]3COC[C@@H]32)cc2c1O[C@@H](CF)[C@@H]2c1ccccc1 [GSK943] | – | – | – | – | – | 64.3 | 75.9 | 67.7 | 30.9 | 76.1
CNCc1ccccc1-c1csc([C@H](C)Nc2nc(C)nc3cc(OC)c(OC)cc23)c1 [BAY-294] | 89 | 102 | 137 | 66.5 | 46.4 | – | – | – | – | –
COc1ccc2cc(OCC3(C(=O)O)CN(C(=O)c4ccc(F)cc4)C3)ccc2c1 [PF-04418948] | 81.3 | 141 | 142 | 43 | 40.3 | – | – | – | – | –
O=C(c1ccc(C(=O)N2CCC(N3CCCC3)CC2)c(Nc2ccccc2)c1)N1CCC(N2CCCC2)CC1 | – | – | – | – | – | 67.2 | 121 | 122 | 47.7 | 57.4
N#CN1CC[C@H](C(=O)Nc2nc3c(s2)CN(C(=O)CN=[N+]=[N-])CC3)C1 [8RK64] | – | – | – | – | – | 40.9 | 105 | 108 | 33.4 | 43.1

SMILES | viability at 1 µM [1] [%] | viability at 1 µM [2] [%] | viability at 1 µM [3] [%] | viability at 1 µM [4] [%] | viability at 1 µM [5] [%] | viability at 10 µM [1] [%] | viability at 10 µM [2] [%] | viability at 10 µM [3] [%] | viability at 10 µM [4] [%] | viability at 10 µM [5] [%]
CNC(=N)NCCC[C@H](NC(=O)[C@H](CC(C)C)NC(=O)NNC(=O)[C@H](Cc1ccccc1)NC(=O)[C@H](CO)NC(=O)[C@H](CC(N)=O)NC(=O)[C@@H](Cc1ccncc1)NC(=O)[C@H](N)Cc1ccc(O)cc1)C(=O)N[C@@H](Cc1ccccc1)C(N)=O [KISS1-305] (H-[dY][d4Pal]NSF[azaGly]L[Arg(Me)]F-NH2) | – | – | – | – | – | 61.3 | 119 | 97.6 | 52.8 | 66.9
CCC(=O)N1CCOc2c(cc(-c3ccc(OC)c(OC)c3)cc2OCC2CCCN(C)C2)C1 (stereo not given) | – | – | – | – | – | 96.1 | 102 | 119 | 74.7 | 60.4
Nc1cnc(N2CCc3cc(S(=O)(=O)Nc4c(F)cc(Cl)cc4F)cc(N4CCCC4=O)c32)nc1 [TP-020n] | 64.8 | 104 | 115 | 71.3 | 45.8 | – | – | – | – | –
Cc1cc2c(-c3ccco3)cnc(N[C@H]3CCN(C)C[C@@H]3C(=O)NC3CCCCC3)c2[nH]c1=O [GSK791] | – | – | – | – | – | 81.3 | 111 | 76 | 26.2 | 50
CNC(=O)c1cc(C(=O)N[C@H]2[C@@H]3COC[C@@H]32)cc2c1O[C@H](CF)[C@H]2c1ccccc1 [GSK973] | – | – | – | – | – | 46.5 | 99.3 | 102 | 23.6 | 58.5
Cn1cncc1[C@](O)(COc1ccc(C#N)cc1-c1ccc(OC(F)(F)F)cc1)c1ccc(C#N)cc1 | – | – | – | – | – | 76.2 | 47 | 75.6 | 18.5 | 40.9
Cc1cc(C)cc([C@H]2c3cc(C)ccc3NC(=O)CN2C(=O)c2ccc(Br)s2)c1 | – | – | – | – | – | 86.1 | 96.4 | 84.3 | 63.7 | 63.4
O=C(NC[C@H](O)CN1CCc2ccccc2C1)c1ccnc(NC2CCC2)c1 | – | – | – | – | – | 50.6 | 32.6 | 83.1 | 31.9 | 43.2
Cc1cc(C)cc([C@@H]2c3cc(C)ccc3NC(=O)CN2C(=O)c2ccc(Br)s2)c1 | – | – | – | – | – | 82.1 | 85.7 | 110 | 78.3 | 76
Cc1ccc2nc(CNCCCOc3ccccc3)cc(O)c2c1 [UCSF924] | – | – | – | – | – | 63.9 | 105 | 119 | 36.6 | 48.9
C[C@H](c1ccc(F)cc1)N(Cc1cccc(C(=O)O)c1)C(=O)c1cnc2ccccc2c1 [PF-05105679] | – | – | – | – | – | 98.3 | 126 | 104 | 61.2 | 45.6
O=C(O)c1ccc(-c2c[nH]c3ncc(-c4ccccc4)cc23)cc1C1CCCC1 [GSK-650394] | – | – | – | – | – | 82.6 | 104 | 136 | 65 | 93.5
CO[C@H]1CC[C@H](CNc2ccc(S(=O)(=O)NC(=O)c3ccc(N4CCN(CC5=C(c6ccc(Cl)cc6)CC(C)(C)CC5)CC4)cc3Oc3cnc4[nH]ccc4c3)cc2[N+](=O)[O-])CC1 [A-1211212] | – | – | – | – | – | 32.3 | 40.4 | 83.3 | 25 | 30.6
CCCOc1ccc([C@@H]2[C@@H](C(=O)O)[C@H](c3ccc4c(c3)OCO4)CN2CC(=O)Nc2c(CC)cccc2CC)cc1 [A-1806262] | 54.5 | 79.9 | 85 | 47.8 | 38.9 | – | – | – | – | –
COc1cc(C(=O)N2CC[C@@H](O)[C@@H](N)C2)cc2nc(-c3cc4ccccc4n3CC3CC3)n(C)c12 | – | – | – | – | – | 75.5 | 107 | 112 | 58.8 | 73.5
CNC(=O)c1ccccc1Nc1cc(Nc2ccc(N3CCOCC3)cc2OC)ncc1C(F)(F)F [VS-4718] | – | – | – | – | – | 19.3 | 25.2 | 22.4 | 5.44 | 4.5
CCOc1ccc(S(=O)(=O)Nc2ccc(Cl)cc2C#Cc2cnc(C(=O)O)cc2OC)c2ncccc12 | – | – | – | – | – | 77.6 | 102 | 95.3 | 42.8 | 46.2
CNc1nc(-c2ccc3c(N)n[nH]c3c2)cc(N2C[C@@H](C(=O)NC3CCCCC3)CC[C@H]2C)n1 | – | – | – | – | – | 39.8 | 57.6 | 44.8 | 17.9 | 24.3
